Experimental data from US20230159619A1, “COMPOSITIONS AND METHODS FOR REGULATING IMMUNE SYSTEM ACTIVITY” (Olema Pharmaceuticals, Inc., priority 2017, published 2023).
Where a chain is given by its changes, count along the chain named.

How the values were obtained:
[1] = target: T1, endoxifen-responsive dominant negative Zap70 polypeptide including an ER(T2) domain having a G400V mutation (Homo sapiens, UniProt P03372, G400V/L544A/M543A); assay: Endoxifen pIC50 in NFAT-Luciferase reporter assay, G400V construct (Example 8); assay type: cell-based; conditions: Jurkat E6.1 cells, 10 ng G400V construct, 1:30 Immunocult CD3/CD28/CD2, 19 hours
T1 construct: expressed in transfected cells; host or cells: Jurkat E6.1 cells, transient transfection
T1 sequence (P03372 with tags, fused parts or gaps G400V/M543A/L544A): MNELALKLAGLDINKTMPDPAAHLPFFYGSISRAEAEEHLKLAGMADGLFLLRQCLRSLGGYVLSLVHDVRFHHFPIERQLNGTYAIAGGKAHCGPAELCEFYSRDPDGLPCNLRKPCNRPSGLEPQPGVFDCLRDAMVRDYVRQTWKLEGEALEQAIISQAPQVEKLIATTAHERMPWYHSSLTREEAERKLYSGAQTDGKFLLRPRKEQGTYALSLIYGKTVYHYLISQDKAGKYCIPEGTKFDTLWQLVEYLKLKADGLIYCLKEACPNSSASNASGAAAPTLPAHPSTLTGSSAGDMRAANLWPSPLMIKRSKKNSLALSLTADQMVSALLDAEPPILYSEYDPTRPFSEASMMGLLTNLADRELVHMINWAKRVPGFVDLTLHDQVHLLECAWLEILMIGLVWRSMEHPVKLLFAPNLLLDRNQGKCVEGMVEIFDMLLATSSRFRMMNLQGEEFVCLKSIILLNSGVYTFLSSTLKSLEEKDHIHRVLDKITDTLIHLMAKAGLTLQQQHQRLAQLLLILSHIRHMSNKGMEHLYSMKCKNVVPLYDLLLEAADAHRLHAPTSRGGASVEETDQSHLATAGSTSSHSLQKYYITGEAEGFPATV
Experimental: (§1) To examine how effective endoxifen is at relieving the inhibition or masking of a dominant negative signaling moiety of a trigger-responsive dominant negative signaling polypeptide by an ER(T2) domain including either a G400V or a G400L mutation, Jurkat E6.1 cells were transiently transfected with 90 ng NFAT-Luciferase reporter construct and 10 ng of a G400V or G400L construct. The transfected cells were stimulated the addition of 1:30 Immunocult CD3/CD28/CD2 tetrameric antibody mixture, and treated with or without endoxifen for 19 hours before assaying for luciferase activity. Results were normalized to maximum TCR stimulation with Immunocult alone, with 0% representing the activity of unstimulated transfected cells. Points represent mean activity from sextuplicate wells with error bars representing SEM. pIC50's were calculated using a variable slope sigmoidal dose-response model using GraphPad Prism.

[2] = target: T2, endoxifen-responsive dominant negative Zap70 polypeptide including an ER(T2) domain having a G400L mutation (Homo sapiens, UniProt P03372, G400L/L544A/M543A); assay: Endoxifen pIC50 in NFAT-Luciferase reporter assay, G400L construct (Example 8); assay type: cell-based; conditions: Jurkat E6.1 cells, 10 ng G400L construct, 1:30 Immunocult CD3/CD28/CD2, 19 hours
T2 construct: expressed in transfected cells; host or cells: Jurkat E6.1 cells, transient transfection
T2 sequence (P03372 with tags, fused parts or gaps G400L/M543A/L544A): T1 sequence (P03372 with tags, fused parts or gaps G400V/M543A/L544A) with V415L
Experimental: as §1

IL2-Luciferase reporter [3] = assay: IL2-Luciferase reporter assay with SHP1(210-595) constructs (Example 12); assay type: cell-based, human; conditions: Jurkat E6.1 cells, α-CD3 and α-CD28, with or without endoxifen, compared to empty vector controls
Experimental: To provide a means for assessing T cell activity, a construct containing a reporter gene, such as firefly luciferase (Luc), under the control of an IL2 response element can be used. In the present Example, Jurkat E6.1 cells were transiently transfected with an IL2-Luciferase reporter construct, as well as one of (a) empty vector; (b) an expression construct encoding SHP1(210-595); and (c) an expression construct encoding SHP1(210-595)-ER(T12). Transient transfections were performed using LTX and PLUS transfection reagent (ThermoFisher Scientific) according to manufacturer's protocols.
Transfected cells were treated in the absence or presence of 1:30 dilution of Immunocult CD3/CD28 tetrameric antibody mixture (StemCell Technologies, Canada), which stimulated T-cell activity. Stimulated cells were then further treated with RPMI 1640 media plus 4.8% FBS stripped with charcoal dextran (ThermoFisher Scientific), without Z-endoxifen or with 50 nM Z-endoxifen (Axon-Medchem). Luciferase activity (luminescence) was measured and reported as percent induction of IL2-Luciferase.

NFAT-Luciferase reporter = NFAT-Luciferase reporter assay with SHP1(210-595) constructs, endoxifen dose response (FIG. 31); assay type: cell-based, human; conditions: Jurkat E6.1 cells, 1:40 Immunocult CD3/CD28, varying amounts of Z-endoxifen
Text: (§2) Reporter constructs included firefly luciferase (Luc) under the control of an NFAT response element and firefly luciferase (Luc) under the control of an IL2 response element. Data presented in the first panel is from Jurkat E6.1 cells transiently transfected with an NFAT-Luciferase reporter construct, as well as one of (a) empty vector; (b) an expression construct encoding SHP1(210-595); and (c) an expression construct encoding SHP1(210-595)-ER(T12). Data presented in the second panel is from Jurkat E6.1 cells transiently transfected with an IL2-Luciferase reporter construct, as well as one of (a) empty vector; (b) an expression construct encoding SHP1(210-595); and (c) an expression construct encoding SHP1(210-595)-ER(T12). Transient transfections were performed using LTX and PLUS transfection reagent (ThermoFisher Scientific) according to manufacturer's protocols. Transfected cells were treated in the presence of 1:40 dilution of Immunocult CD3/CD28 tetrameric antibody mixture (StemCell Technologies, Canada), which stimulated T-cell activity. Stimulated cells were then further treated with RPMI 1640 media plus 4.8% FBS stripped with charcoal dextran (ThermoFisher Scientific), with varying amounts of Z-endoxifen (Axon-Medchem) as indicated in FIG. 31. Luciferase activity (luminescence) was measured and reported as percent induction of IL2-Luciferase.

IL2-Luciferase reporter [4] = assay: IL2-Luciferase reporter assay with SHP1(210-595) constructs, endoxifen dose response (FIG. 31); assay type: cell-based, human; conditions: Jurkat E6.1 cells, 1:40 Immunocult CD3/CD28, varying amounts of Z-endoxifen
Text: as §2

IC50 [1] | IC50 [2] | inhibition of NFAT-Luciferase reporter expression (NFAT-Luciferase reporter) | inhibition of IL2-Luciferase reporter expression (IL2-Luciferase reporter [4]) | Molecule | luciferase reporter expression (percent induction of IL2-Luciferase) (IL2-Luciferase reporter [3])
6.31 nM | 1.58 nM | – | – | CC/C(=C(\c1ccc(O)cc1)c1ccc(OCCNC)cc1)c1ccccc1 [endoxifen] | –
– | – | endoxifen-independent manner | endoxifen-independent manner | SHP1(210-595): constitutively active SHP1 phosphatase signaling moiety, SEQ ID NO: 23 | substantially reduced expression of luciferase reporter
